Reference: patent US20020110604A1, “Composition exhibiting synergistic antioxidant activity” (Ashni Naturaceuticals, Inc., priority 2000, published 2002)
pEC50: −log10 of the molar value.

Test: Total Oxyradical Scavenging Capacity (TOSC) Assay; synergy by CalcuSyn median-effect analysis
Assay type: biochemical
Conditions: TOSC antioxidant capacity; pure compounds, astaxanthin alone or combined at the stated ratio
Protocol: Cm is determined from the x-intercept of the median-effect plot. The fraction affected by the concentration of the test material is fa and the fraction unaffected by the concentration is fu (fu=1−fa). The exponent m is the parameter signifying the sigmoidicity or shape of the dose-effect curve. It is estimated by the slope of the median-effect plot. […] The goodness of fit for the data to the median-effect equation is represented by the linear correlation coefficient r of the median-effect plot. […] Synergy of test components is quantified using the combination index (CI) parameter. […] The equation determines only the additive effect rather than synergism or antagonism.

## CC1=C(/C=C/C(C)=C/C=C/C(C)=C/C=C/C=C(C)/C=C/C=C(C)/C=C/C2=C(C)C(=O)[C@@H](O)CC2(C)C)C(C)(C)C[C@H](O)C1=O [astaxanthin, 3, 3′-dihydroxy-β,β-carotene-4, 4′-dieto-β-carotene]
  pEC50: 3.19
